Results published in patent EP4603105A1, “PHARMACEUTICAL COMPOSITION CONTAINING CYCLIC COMPOUND HAVING SELECTIVE KRAS INHIBITORY EFFECT AGAINST HRAS AND NRAS” (CHUGAI SEIYAKU KABUSHIKI KAISHA, priority 2022, dated 2024).
Where a SMILES comes first, the peptide text is derived from it. Bridges are numbered along the chain shown (N, C = ends). [ ]: non-standard residue; d: D form. The star is where a group is joined. hPhe(3-Cl-4-CF3) = N[C@@H](CCc1ccc(C(F)(F)F)c(Cl)c1)C(=O)O; NPrPhe(4-CF3) = CCCN[C@@H](Cc1ccc(C(F)(F)F)cc1)C(=O)O; NMeGly(cPent) = CN[C@H](C(=O)O)C1CCCC1; Pro(4,4-F2) = O=C(O)[C@@H]1CC(F)(F)CN1; NMeD = CN[C@@H](CC(=O)O)C(=O)O; NMeL = CN[C@@H](CC(C)C)C(=O)O; Morpholide = C1CN(*)CCO1; Ac5c = NC1(C(=O)O)CCCC1; Aze = O=C(O)[C@@H]1CCN1; Abu = CC[C@H](N)C(=O)O; Ac4c = NC1(C(=O)O)CCC1; Sar = CNCC(=O)O

Key:
[1] = target: GDP-bound KRAS wild-type protein (Homo sapiens, UniProt P01116); test: Binding to KRAS by surface plasmon resonance (SPR), dissociation constant KD
How it was run: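 Affinity is measured by surface plasmon resonance at 30°C against captured, GDP-loaded RAS carrying a biotinylated Avi tag. Compounds are titrated by single-cycle kinetics, and KD comes from a 1:1 fit.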

[2] = target: GDP-bound NRAS wild-type protein (Homo sapiens, UniProt P01111); test: Binding to NRAS by surface plasmon resonance (SPR), KD and KD ratio to KRAS
How it was run: (§1)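 Captured GDP-RAS (~100–300 RU) was exposed to increasing compound concentrations, 75 s per step, in running buffer with 10 µM GDP, 10 mM MgCl2 and 4% DMSO at pH 7.4.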

HRAS wild-type protein = HRAS wild-type protein (Homo sapiens, UniProt P01112); test: Binding to HRAS by surface plasmon resonance (SPR), KD and KD ratio to KRAS
How it was run: as §1

[3] = system: human lung cancer strain NCI-H441; type: cell-based
How it was run: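 Step one: dispense the test compound in serial DMSO dilutions. Step three: add the reagent and measure […].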

[4] = Single Cycle Kinetics, 1:1 binding model
[5] = ratio of the KD value with respect to GDP-bound NRAS wild-type protein to the KD value with respect to KRAS
[6] = ratio of the KD value with respect to HRAS wild-type protein to the KD value with respect to KRAS
[7] = ratio of KD for GDP-bound NRAS wild-type protein to KD for KRAS
[8] = ratio of KD for HRAS wild-type protein to KD for KRAS

Chain of GDP-bound NRAS wild-type protein (P01111 whole entry): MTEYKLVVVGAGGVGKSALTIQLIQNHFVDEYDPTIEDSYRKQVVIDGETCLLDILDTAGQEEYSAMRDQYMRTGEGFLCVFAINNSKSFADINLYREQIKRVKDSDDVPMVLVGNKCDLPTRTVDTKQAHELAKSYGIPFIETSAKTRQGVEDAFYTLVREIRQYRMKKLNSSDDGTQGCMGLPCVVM
Chain of HRAS wild-type protein (P01112 whole entry): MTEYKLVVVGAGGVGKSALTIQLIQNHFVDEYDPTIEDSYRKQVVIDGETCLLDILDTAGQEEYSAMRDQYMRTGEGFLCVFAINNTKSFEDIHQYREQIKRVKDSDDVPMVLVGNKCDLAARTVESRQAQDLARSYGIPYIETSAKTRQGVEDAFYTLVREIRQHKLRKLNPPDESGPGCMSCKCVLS
Chain of GDP-bound KRAS wild-type protein (P01116 1-188 isoform P01116-2): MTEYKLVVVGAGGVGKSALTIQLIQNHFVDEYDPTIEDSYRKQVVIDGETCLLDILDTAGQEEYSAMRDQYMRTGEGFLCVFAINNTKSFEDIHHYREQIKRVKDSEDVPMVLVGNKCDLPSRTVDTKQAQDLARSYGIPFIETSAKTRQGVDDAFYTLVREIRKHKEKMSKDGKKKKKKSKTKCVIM

| Structure (SMILES) | Kd [1, 4] [nM] | IC50 [3] [nM] | Kd ([1]; Single Cycle Kinetics) [nM] | Kd ([1]; 1:1 binding model) [nM] | NRAS /KRAS [2, 5] | HRAS /KRAS (HRAS wild-type protein; [6]) | NRAS /KRAS [2, 7] | HRAS /KRAS (HRAS wild-type protein; [8]) |
| --- | --- | --- | --- | --- | --- | --- | --- | --- |
| CC[C@@H]1C[C@H]2C(=O)NC3(CCCC3)C(=O)N(C)[C@@H](C3CCCC3)C(=O)N(C)[C@H](C(=O)N(C)C)CC(=O)N(C)[C@@H](CC(C)C)C(=O)N[C@@H]([C@@H](C)CC)C(=O)N(C)CC(=O)N(C)[C@H]3C/C=C\CCN(C3=O)[C@@H](Cc3ccc(C)cc3)C(=O)N(C)CC(=O)N[C@@H](CCc3cc(F)c(C(F)(F)F)c(F)c3)C(=O)N2C1 [PP2191] | 0.23 | 91.6 |  |  | A (a compound having 10 or more and less than 20 is denoted as A) | B (a compound having 3 or more and less than 10 is denoted as B) |  |  |
| CCO[C@@H]1C[C@H]2C(=O)NC3(CCC3)C(=O)N(C)[C@@H](C3CCCC3)C(=O)N(C)[C@H](C(=O)N3CCOCC3)CC(=O)N(C)[C@@H](CC3CCCC3)C(=O)N[C@@H]([C@@H](C)CC)C(=O)N(C)CC(=O)N(C)[C@H]3CCCCCN(C3=O)[C@@H](Cc3ccc(C(F)(F)F)cc3)C(=O)N(C)CC(=O)N[C@@H](CCc3cc(F)c(C(F)(F)F)c(F)c3)C(=O)N2C1 [PP0685] | 0.8 | 52.3 |  |  | B (a compound having 3 or more and less than 10 is denoted as B) | B (a compound having 3 or more and less than 10 is denoted as B) |  |  |
| CC[C@H](C)[C@@H]1NC(=O)[C@H](CC(C)C)N(C)C(=O)C[C@@H](C(=O)N2CCOCC2)N(C)C(=O)[C@H](C2CCCC2)N(C)C(=O)C2(CCC2)NC(=O)[C@@H]2[C@H](O)CCN2C(=O)[C@H](CCc2cc(F)c(C(F)(F)F)c(F)c2)NC(=O)CN(C)C(=O)[C@H](Cc2ccc(C(F)(F)F)cc2)N2CCCCC[C@@H](C2=O)N(C)C(=O)CN(C)C1=O [PP0873] |  | 896 | 0.86 |  |  |  | A (a compound having 10 or more and less than 20 is denoted as A) | B (a compound having 3 or more and less than 10 is denoted as B) |
| CCO[C@@H]1C[C@H]2C(=O)NC3(CC(C)(C)C3)C(=O)N(C)[C@@H](C3CCCC3)C(=O)N(C)[C@H](C(=O)N(C)CC)CC(=O)N(C)[C@@H](CC(C)C)C(=O)N[C@@H]([C@@H](C)CC)C(=O)N(C)CC(=O)N(C)[C@H]3C/C=C\CCN(C3=O)[C@@H](Cc3ccc(C(F)F)cc3)C(=O)N(C)CC(=O)N[C@@H](CCc3cc(F)c4c(c3)OCC4)C(=O)N2C1 [PP3150] |  | 191 |  | 2.9 |  |  | A (a compound having 10 or more and less than 20 is denoted as A) | A (a compound having 10 or more and less than 20 is denoted as A) |
| CC[C@H](C)[C@@H]1NC(=O)[C@H](CC(C)C)N(C)C(=O)C[C@@H](C(=O)N(C)C)N(C)C(=O)[C@H](C2CCCC2)N(C)C(=O)C2(CCCC2)NC(=O)[C@@H]2CCCN2C(=O)[C@H](CCc2ccc(C(F)(F)F)c(Cl)c2)NC(=O)CN(C)C(=O)[C@H](Cc2ccc(C)cc2)N2CC=C(C)C[C@@H](C2=O)N(C)C(=O)CN(C)C1=O [PP0620] | 0.69 | 38.4 |  |  | C (A compound having a KD ratio of 0.1 or more and less than 3 is denoted as C) | C (A compound having a KD ratio of 0.1 or more and less than 3 is denoted as C) |  |  |
| CCO[C@@H]1C[C@H]2C(=O)NC3(CC(C)(C)C3)C(=O)N(C)[C@@H](C3CCCC3)C(=O)N(C)[C@H](C(=O)N(C)CC)CC(=O)N(C)[C@@H](CC(C)C)C(=O)N[C@@H]([C@@H](C)CC)C(=O)N(C)CC(=O)N(C)[C@H]3C/C=C\CCN(C3=O)[C@@H](Cc3ccc(C(F)F)cc3)C(=O)N(C)CC(=O)N[C@@H](CCc3cc(F)c(C(F)F)c(OC)c3)C(=O)N2C1 [PP3147] |  | 54.6 |  | 0.41 |  |  | A (a compound having 10 or more and less than 20 is denoted as A) | A (a compound having 10 or more and less than 20 is denoted as A) |
| CCCN1C(=O)CN(C)C(=O)[C@@H]2CCN2C(=O)[C@H](CC)NC(=O)[C@H](CC(C)C)N(C)C(=O)C[C@@H](C(=O)N2CCOCC2)N(C)C(=O)[C@H](C2CCCC2)N(C)C(=O)C2(CCCC2)NC(=O)[C@@H]2CCCN2C(=O)[C@H](CCc2ccc(C(F)(F)F)c(Cl)c2)NC(=O)CN(C)C(=O)[C@@H]1Cc1ccc(C(F)(F)F)cc1 [PP0303] ([NMeL][Abu][Aze][Sar][NPrPhe(4-CF3)][Sar][hPhe(3-Cl-4-CF3)]P[Ac5c][NMeGly(cPent)][NMeD]-Morpholide; lactam N-11) |  | 349 |  | 4 |  |  | B (a compound having 3 or more and less than 10 is denoted as B) | B (a compound having 3 or more and less than 10 is denoted as B) |
| C#CC[C@H]1C(=O)N[C@@H]([C@@H](C)CC)C(=O)N(C)CC(=O)N(C)[C@H]2C/C=C\CCN(C2=O)[C@@H](Cc2ccc(C(F)(F)F)cc2)C(=O)N(C)CC(=O)N[C@@H](CCc2ccc(C(F)(F)F)c(OC)c2)C(=O)N2C[C@H](F)C[C@H]2C(=O)NC2(CC(C)(C)C2)C(=O)N(C)[C@@H](CCC=C)C(=O)N(C)[C@H](C(=O)N2CCCC2)CC(=O)N1C [PP3132] |  | 245 |  | 3.5 |  |  | A (a compound having 10 or more and less than 20 is denoted as A) | A (a compound having 10 or more and less than 20 is denoted as A) |
| CCC[C@H]1C(=O)N[C@@H](C2CCOCC2)C(=O)N(C)CC(=O)N(C)[C@H]2C/C=C\CCN(C2=O)[C@@H](Cc2ccc(C)cc2)C(=O)N(C)CC(=O)N[C@@H](CCc2ccc(C(F)(F)F)c(Cl)c2)C(=O)N2C[C@H](OCC)C[C@H]2C(=O)NC2(CC(C)(C)C2)C(=O)N(C)[C@@H](CC(C)(C)C)C(=O)N(C)[C@H](C(=O)N(C)C)CC(=O)N1C [PP3026] |  | 53.6 |  | 0.66 |  |  | A (a compound having 10 or more and less than 20 is denoted as A) | A (a compound having 10 or more and less than 20 is denoted as A) |

The next compounds have a lower IC50 [3] than those just listed; values first:

| Kd [1, 4] [nM] | IC50 [3] [nM] | Kd ([1]; Single Cycle Kinetics) [nM] | Kd ([1]; 1:1 binding model) [nM] | Structure (SMILES) | NRAS /KRAS [2, 5] | HRAS /KRAS (HRAS wild-type protein; [6]) | NRAS /KRAS [2, 7] | HRAS /KRAS (HRAS wild-type protein; [8]) |
| --- | --- | --- | --- | --- | --- | --- | --- | --- |
| 0.37 | 21.7 |  |  | CCCN1C(=O)CN(C)C(=O)[C@@H]2CCN2C(=O)[C@H]([C@@H](C)CC)NC(=O)[C@H](CC(C)C)N(C)C(=O)C[C@@H](C(=O)N2CCOCC2)N(C)C(=O)[C@H](C2CCCC2)N(C)C(=O)C2(CCC2)NC(=O)[C@@H]2CC(F)(F)CN2C(=O)[C@H](CCc2ccc(C(F)(F)F)c(Cl)c2)NC(=O)CN(C)C(=O)[C@@H]1Cc1ccc(C(F)(F)F)cc1 [PP0404] ([NMeL]I[Aze][Sar][NPrPhe(4-CF3)][Sar][hPhe(3-Cl-4-CF3)][Pro(4,4-F2)][Ac4c][NMeGly(cPent)][NMeD]-Morpholide; lactam N-11) | B (a compound having 3 or more and less than 10 is denoted as B) | C (A compound having a KD ratio of 0.1 or more and less than 3 is denoted as C) |  |  |
| 0.17 | 28.9 |  |  | CCO[C@@H]1C[C@H]2C(=O)NC3(CCC3)C(=O)N(C)[C@@H](C3CCCC3)C(=O)N(C)[C@H](C(=O)N(C)CC)CC(=O)N(C)[C@H]3CCCCCc4ccc(cc4)C[C@@H](C(=O)N(C)CC(=O)N[C@@H](CCc4cc(F)c(C(F)(F)F)c(F)c4)C(=O)N2C1)N1CC/C=C\C[C@@H](C1=O)N(C)C(=O)CN(C)C(=O)[C@H]([C@@H](C)CC)NC3=O [PP2117] | A (a compound having 10 or more and less than 20 is denoted as A) | A (a compound having 10 or more and less than 20 is denoted as A) |  |  |
|  | 7.5 | 0.039 |  | CC[C@H](C)[C@@H]1NC(=O)[C@H](CC(C)C)N(C)C(=O)C[C@@H](C(=O)N2CCOCC2)N(C)C(=O)[C@H](C2CCCC2)N(C)C(=O)C2(CCC2)NC(=O)[C@@H]2C[C@@H](OCC3CC3)CN2C(=O)[C@H](CCc2cc(F)c(C(F)(F)F)c(F)c2)NC(=O)CN(C)C(=O)[C@H](Cc2ccc(C(F)(F)F)cc2)N2CCCC[C@@H](C2=O)N(C)C(=O)CN(C)C1=O [PP1000] |  |  | B (a compound having 3 or more and less than 10 is denoted as B) | B (a compound having 3 or more and less than 10 is denoted as B) |
| 0.11 | 7.8 |  |  | CC[C@H](C)[C@@H]1NC(=O)[C@H](C2CCC2)N(C)C(=O)C[C@@H](C(=O)N(C)CC)N(C)C(=O)[C@H](C2CCCC2)N(C)C(=O)C2(CCC2)NC(=O)[C@@H]2C[C@H](C)CN2C(=O)[C@H](CCc2cc(F)c(C(F)(F)F)c(F)c2)NC(=O)CN(C)C(=O)[C@H](Cc2ccc(C(F)(F)F)cc2)N2CC/C=C\C[C@@H](C2=O)N(C)C(=O)CN(C)C1=O [PP2082] | AA (a compound having 20 or more is denoted as AA) | A (a compound having 10 or more and less than 20 is denoted as A) |  |  |
| 0.3 | 10.3 |  |  | CCO[C@@H]1C[C@H]2C(=O)NC3(CC(C)(C)C3)C(=O)N(C)[C@@H](C(CC)CC)C(=O)N(C)[C@H](C(=O)N(C)C)CC(=O)N(C)[C@@H](CC3CC3)C(=O)N[C@@H]([C@@H](C)CC)C(=O)N(C)CC(=O)N(C)[C@H]3C/C=C\CCN(C3=O)[C@@H](Cc3ccc(C)cc3)C(=O)N(C)CC(=O)N[C@@H](CCc3ccc(C(F)(F)F)c(Cl)c3)C(=O)N2C1 [PP2142] | AA (a compound having 20 or more is denoted as AA) | A (a compound having 10 or more and less than 20 is denoted as A) |  |  |
|  | 15.8 | 0.15 |  | CCO[C@@H]1C[C@H]2C(=O)NC3(CCC3)C(=O)N(C)[C@@H](C3CCCC3)C(=O)N(C)[C@H](C(=O)N(C)C)CC(=O)N(C)[C@@H](CC(C)C)C(=O)N[C@@H]([C@@H](C)CC)C(=O)N(C)CC(=O)N(C)[C@H]3CCCCCN(C3=O)[C@@H](Cc3ccc(F)cc3)C(=O)N(C)CC(=O)N[C@@H](CCc3ccc(C(F)(F)F)c(Cl)c3)C(=O)N2C1 [PP0972] |  |  | B (a compound having 3 or more and less than 10 is denoted as B) | B (a compound having 3 or more and less than 10 is denoted as B) |
